Values after ≈ are worked out from the molar mass of the structure shown. Where two headings read alike, the source gives them in different places.
Legend:
Assay in all cases: In vitro antibacterial activity (MIC), two-fold agar-plate dilution method
Type in all cases: cell-based
[1] = system: Pseudomonas aeruginosa 22027; details: Pseudomonas aeruginosa 22027, metallo β-lactamase producing strain, HI-agar, 37° C. for 20 hours
Description: (§1) Now in order to show the utility of the object compound [I], the test data on MIC (minimal inhibitory concentration) of a representative compound of this invention are shown in the following.
(§2) In vitro antibacterial activity was determined by the two-fold agar-plate dilution method as described below.
(§3) One loopful of an overnight culture of each test strain in Trypticase-soy broth (10^6 viable cells per ml) was streaked on heart infusion agar (HI-agar) containing graded concentrations of representative test compound, and the minimal inhibitory concentration (MIC) was expressed in μg/ml after incubation at 37° C. for 20 hours.

[2] = system: Pseudomonas aeruginosa FP 1380; details: Pseudomonas aeruginosa FP 1380, AmpC β-lactamase overproduced strain, HI-agar, 37° C. for 20 hours
Description: as §1, §2, §3

[3] = system: Pseudomonas aeruginosa 19136; details: Pseudomonas aeruginosa 19136, metallo β-lactamase producing strain, HI-agar, 37° C. for 20 hours
Description: as §1, §2, §3

“7β-[(Z)-2-(5-amino-1,2,4-thiadiazol-3-yl)-2-(1-carboxy-1-methylethoxyimino)acetamido]-3-{3-[1-(3-aminopropyl)guanidino]-2,3-dihydro-5-(1H-imidazo[1,2-b]pyrazolio)}methyl-3-cephem-4-carboxylate sulfate [Compound (A)]” gave an MIC [1] of 8 µg/mL, an MIC [2] of 0.5 µg/mL and an MIC [3] of 2 µg/mL.

In the case of `C[C@H]1[C@H](NC(=O)/C(=N\OC(C)(C)C(=O)O)c2csc(N)n2)C(=O)N1S(=O)(=O)O` [Aztreonam, reference compound], the MIC ([1]; read-out: MIC) is reported as 32 µg/mL (≈ 73.5 µM), the MIC ([2]; FP1380, read-out: MIC) is reported as 64 µg/mL (≈ 147 µM) and the MIC ([3]; read-out: MIC) is reported as 4 µg/mL (≈ 9.19 µM).

`CC(C)(O/N=C(\C(=O)N[C@@H]1C(=O)N2C(C(=O)O)=C(C[n+]3cc(N(CCN)C(=N)N)c4n3CCCN4)CS[C@H]12)c1nsc(N)n1)C(=O)O.O=S(=O)([O-])O` [Compound (B), 7β-[(Z)-2-(5-amino-1,2,4-thiadiazol-3-yl)-2-(1-carboxy-1-methylethoxyimino)acetamido]-3-{3-[1-(2-aminoethyl)guanidino]-4,5,6,7-tetrahydro-1-(pyrazolo[1,5-a]pyrimidinio)}methyl-3-cephem-4-carboxylate sulfate] showed an MIC [1] of 8 µg/mL, an MIC [2] of 0.5 µg/mL and an MIC [3] of 2 µg/mL.
